Test results from patent publication US20100099561A1, “HETEROBICYCLIC ALKYLTHIO-BRIDGED ISOXAZOLINES” (E.I. DU PONT DE NEMOURS AND COMPANY, priority 2008, published 2010).

Legend:
Type in all cases: in vivo
[1] = test system: barnyardgrass (Echinochloa crus-galli); test: Test A postemergence, barnyardgrass; conditions: 0 to 100 scale (0 no effect, 100 complete control)
Outline: (§1)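 Species planted together in a loam soil and sand blend received compound either as a preemergence soil spray or as a postemergence treatment when 2–10 cm tall with one to two leaves. About ten days later, injury was visually rated relative to untreated plants on a 0–100 scale.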

[2] = test system: morningglory (Ipomoea spp.); test: Test A preemergence, morningglory; conditions: 0 to 100 scale (0 no effect, 100 complete control)
Outline: as §1

[3] = test system: umbrella sedge (Cyperus difformis); test: Test B flooded paddy test, umbrella sedge; conditions: Flood, scale 0 to 100
Outline: (§2)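 Step one: raise plants to 2 leaves. Step two: flood pots 3 cm over the soil and apply compound into the water, keeping this depth. Step three: after 13–15 greenhouse days, score visually versus controls, 0–100, where 100 means complete control.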

[4] = test system: morningglory (Ipomoea spp.); test: Test A postemergence, morningglory; conditions: 0 to 100 scale (0 no effect, 100 complete control)
Outline: as §1

[5] = test system: pigweed (Amaranthus retroflexus); test: Test A preemergence, pigweed; conditions: 0 to 100 scale (0 no effect, 100 complete control)
Outline: as §1

[6] = test system: giant foxtail (Setaria faberi); test: Test A preemergence, giant foxtail; conditions: 0 to 100 scale (0 no effect, 100 complete control)
Outline: as §1

corn (Zea mays) [7] = test: Test A preemergence, corn; conditions: 0 to 100 scale (0 no effect, 100 complete control)
Outline: as §1

[8] = test system: velvetleaf (Abutilon theophrasti); test: Test A preemergence, velvetleaf; conditions: 0 to 100 scale (0 no effect, 100 complete control)
Outline: as §1

[9] = test system: ducksalad (Heteranthera limosa); test: Test B flooded paddy test, ducksalad; conditions: Flood, scale 0 to 100
Outline: as §2

[10] = test system: large crabgrass (Digitaria sanguinalis); test: Test A preemergence, large crabgrass; conditions: 0 to 100 scale (0 no effect, 100 complete control)
Outline: as §1

[11] = test system: barnyardgrass (Echinochloa crus-galli); test: Test A preemergence, barnyardgrass; conditions: 0 to 100 scale (0 no effect, 100 complete control)
Outline: as §1

[12] = test system: velvetleaf (Abutilon theophrasti); test: Test A postemergence, velvetleaf; conditions: 0 to 100 scale (0 no effect, 100 complete control)
Outline: as §1

[13] = test system: wheat (Triticum aestivum); test: Test A preemergence, wheat; conditions: 0 to 100 scale (0 no effect, 100 complete control)
Outline: as §1

[14] = test system: barnyardgrass (Echinochloa crus-galli); test: Test B flooded paddy test, barnyardgrass; conditions: Flood
Outline: as §2

[15] = test system: pigweed (Amaranthus retroflexus); test: Test A postemergence, pigweed; conditions: 0 to 100 scale (0 no effect, 100 complete control)
Outline: as §1

[16] = test system: wheat (Triticum aestivum); test: Test A postemergence, wheat; conditions: 0 to 100 scale (0 no effect, 100 complete control)
Outline: as §1

rice (Oryza sativa) = test: Test B flooded paddy test, rice; conditions: Flood, scale 0 to 100
Outline: as §2

[17] = test system: large crabgrass (Digitaria sanguinalis); test: Test A postemergence, large crabgrass; conditions: 0 to 100 scale (0 no effect, 100 complete control)
Outline: as §1

corn (Zea mays) [18] = test: Test A postemergence, corn; conditions: 0 to 100 scale (0 no effect, 100 complete control)
Outline: as §1

[19] = test system: giant foxtail (Setaria faberi); test: Test A postemergence, giant foxtail; conditions: 0 to 100 scale (0 no effect, 100 complete control)
Outline: as §1

[20] = 250 g ai/ha, scale 0 to 100 (0 no effect, 100 complete control)

CC1(C)CC(S(=O)(=O)Cc2c(C(F)(F)C(F)(F)F)nc3n(c2=O)CCCO3)=NO1 [Compound 55]
Plant response rating, Barnyardgrass ([1]; 125 g ai/ha): 70
Plant response rating, Barnyardgrass ([1]; 500 g ai/ha): 90
Plant response rating, Morningglory ([2]; 125 g ai/ha): 0
Plant response rating, Morningglory ([2]; 500 g ai/ha): 50
Plant response rating, Sedge, Umbrella ([3]; 31 g ai/ha): 0
Plant response rating, Sedge, Umbrella ([3]; 62 g ai/ha): 0
Plant response rating, Sedge, Umbrella ([3]; 125 g ai/ha): 0
Plant response rating, Sedge, Umbrella ([3]; 250 g ai/ha): 0
Plant response rating, Morningglory ([4]; 125 g ai/ha): 10
Plant response rating, Morningglory ([4]; 500 g ai/ha): 20
Plant response rating, Pigweed ([5]; 125 g ai/ha): 0
Plant response rating, Pigweed ([5]; 500 g ai/ha): 40
Plant response rating, Foxtail, Giant ([6]; 125 g ai/ha): 80
Plant response rating, Foxtail, Giant ([6]; 500 g ai/ha): 90
Plant response rating, Corn (corn (Zea mays) [7]; 125 g ai/ha): 0
Plant response rating, Corn (corn (Zea mays) [7]; 500 g ai/ha): 0
Plant response rating, Velvetleaf ([8]; 125 g ai/ha): 0
Plant response rating, Velvetleaf ([8]; 500 g ai/ha): 30
Plant response rating, Ducksalad ([9]; 31 g ai/ha): 0
Plant response rating, Ducksalad ([9]; 62 g ai/ha): 0
Plant response rating, Ducksalad ([9]; 125 g ai/ha): 0
Plant response rating, Ducksalad ([9]; 250 g ai/ha): 0
Plant response rating, Crabgrass, Large ([10]; 125 g ai/ha): 0
Plant response rating, Crabgrass, Large ([10]; 500 g ai/ha): 90
Plant response rating, Barnyardgrass ([11]; 125 g ai/ha): 50
Plant response rating, Barnyardgrass ([11]; 500 g ai/ha): 80
Plant response rating, Velvetleaf ([12]; 125 g ai/ha): 0
Plant response rating, Velvetleaf ([12]; 500 g ai/ha): 30
Plant response rating, Wheat ([13]; 125 g ai/ha): 0
Plant response rating, Wheat ([13]; 500 g ai/ha): 20
Plant response rating, Barnyardgrass ([14]; 31 g ai/ha, scale 0 to 100): 0
Plant response rating, Barnyardgrass ([14]; 62 g ai/ha, scale 0 to 100): 0
Plant response rating, Barnyardgrass ([14]; 125 g ai/ha, scale 0 to 100): 0
Plant response rating, Barnyardgrass [14, 20]: 0
Plant response rating, Pigweed ([15]; 125 g ai/ha): 0
Plant response rating, Pigweed ([15]; 500 g ai/ha): 10
Plant response rating, Wheat ([16]; 125 g ai/ha): 0
Plant response rating, Wheat ([16]; 500 g ai/ha): 30
Plant response rating, Rice (rice (Oryza sativa); 31 g ai/ha): 0
Plant response rating, Rice (rice (Oryza sativa); 62 g ai/ha): 0
Plant response rating, Rice (rice (Oryza sativa); 125 g ai/ha): 0
Plant response rating, Rice (rice (Oryza sativa); 250 g ai/ha): 0
Plant response rating, Crabgrass, Large ([17]; 125 g ai/ha): 30
Plant response rating, Crabgrass, Large ([17]; 500 g ai/ha): 70
Plant response rating, Corn (corn (Zea mays) [18]; 125 g ai/ha): 0
Plant response rating, Corn (corn (Zea mays) [18]; 500 g ai/ha): 0
Plant response rating, Foxtail, Giant ([19]; 125 g ai/ha): 70
Plant response rating, Foxtail, Giant ([19]; 500 g ai/ha): 80

Cc1con2c(=O)c(CS(=O)(=O)C3=NOC(C)(C)C3)c(C(F)(F)F)nc12 [Compound 56]
Plant response rating, Barnyardgrass ([1]; 125 g ai/ha): 70
Plant response rating, Barnyardgrass ([1]; 500 g ai/ha): 80
Plant response rating, Morningglory ([2]; 125 g ai/ha): 0
Plant response rating, Morningglory ([2]; 500 g ai/ha): 0
Plant response rating, Sedge, Umbrella ([3]; 31 g ai/ha): 0
Plant response rating, Sedge, Umbrella ([3]; 62 g ai/ha): 0
Plant response rating, Sedge, Umbrella ([3]; 125 g ai/ha): 20
Plant response rating, Sedge, Umbrella ([3]; 250 g ai/ha): 30
Plant response rating, Morningglory ([4]; 125 g ai/ha): 10
Plant response rating, Morningglory ([4]; 500 g ai/ha): 30
Plant response rating, Pigweed ([5]; 125 g ai/ha): 0
Plant response rating, Pigweed ([5]; 500 g ai/ha): 0
Plant response rating, Foxtail, Giant ([6]; 125 g ai/ha): 20
Plant response rating, Foxtail, Giant ([6]; 500 g ai/ha): 90
Plant response rating, Corn (corn (Zea mays) [7]; 125 g ai/ha): 0
Plant response rating, Corn (corn (Zea mays) [7]; 500 g ai/ha): 0
Plant response rating, Velvetleaf ([8]; 125 g ai/ha): 0
Plant response rating, Velvetleaf ([8]; 500 g ai/ha): 0
Plant response rating, Ducksalad ([9]; 31 g ai/ha): 0
Plant response rating, Ducksalad ([9]; 62 g ai/ha): 0
Plant response rating, Ducksalad ([9]; 125 g ai/ha): 0
Plant response rating, Ducksalad ([9]; 250 g ai/ha): 0
Plant response rating, Crabgrass, Large ([10]; 125 g ai/ha): 0
Plant response rating, Crabgrass, Large ([10]; 500 g ai/ha): 90
Plant response rating, Barnyardgrass ([11]; 125 g ai/ha): 0
Plant response rating, Barnyardgrass ([11]; 500 g ai/ha): 90
Plant response rating, Velvetleaf ([12]; 125 g ai/ha): 0
Plant response rating, Velvetleaf ([12]; 500 g ai/ha): 0
Plant response rating, Wheat ([13]; 125 g ai/ha): 0
Plant response rating, Wheat ([13]; 500 g ai/ha): 0
Plant response rating, Barnyardgrass ([14]; 31 g ai/ha, scale 0 to 100): 0
Plant response rating, Barnyardgrass ([14]; 62 g ai/ha, scale 0 to 100): 0
Plant response rating, Barnyardgrass ([14]; 125 g ai/ha, scale 0 to 100): 0
Plant response rating, Barnyardgrass [14, 20]: 0
Plant response rating, Pigweed ([15]; 125 g ai/ha): 0
Plant response rating, Pigweed ([15]; 500 g ai/ha): 10
Plant response rating, Wheat ([16]; 125 g ai/ha): 0
Plant response rating, Wheat ([16]; 500 g ai/ha): 0
Plant response rating, Rice (rice (Oryza sativa); 31 g ai/ha): 0
Plant response rating, Rice (rice (Oryza sativa); 62 g ai/ha): 0
Plant response rating, Rice (rice (Oryza sativa); 125 g ai/ha): 0
Plant response rating, Rice (rice (Oryza sativa); 250 g ai/ha): 0
Plant response rating, Crabgrass, Large ([17]; 125 g ai/ha): 60
Plant response rating, Crabgrass, Large ([17]; 500 g ai/ha): 80
Plant response rating, Corn (corn (Zea mays) [18]; 125 g ai/ha): 0
Plant response rating, Corn (corn (Zea mays) [18]; 500 g ai/ha): 0
Plant response rating, Foxtail, Giant ([19]; 125 g ai/ha): 40
Plant response rating, Foxtail, Giant ([19]; 500 g ai/ha): 80
